In patent EP4656630A1, “NOVEL COMPOUND AS LYSYL-TRNA SYNTHETASE 1 INHIBITOR, AND USE THEREOF” (Zymedi Co., Ltd., priority 2023, dated 2024):
Values belong to the compound of their own block, whether it stands above or below them.

Tests used:
[1] = Rat pharmacokinetics (po and iv) and bioavailability; format: in vivo; details: for Cmax / Tmax / half-life / AUC: in vivo; for AUC value increase at 30 mpk: 30 mpk compared with 10 mpk
Experimental: For this purpose, formulations suitable for peroral administration (po) and intravenous injection (iv) for each compound were first selected to ensure stable PK progression.
The formulation was selected under the condition of maintaining a clear solution for more than 1 hour at 10 and 30 mpk doses based on po, and the iv formulation was modified when iv use was not possible based on po (Table 8).
To confirm the oral administration potential of the selected compounds, 10 mpk rat po PK was conducted. The PK profile and key indicators after administering 10 mpk to five compounds, C0001, 25, 41, 42, and 43, are shown in Figure 3 and Table 9.
Based on the previous 10 mpk po rat PK results, 30 mpk po rat PK was conducted for four compounds, C0001, 25, 41, and 43, to confirm changes in the blood PK profile of the substances with increasing doses.
For these compounds, 2 mpk iv rat PK was conducted to calculate bioavailability (BA) (Table 11).

Raw264.7 cells = assay: KARS1-induced trans-migration assay; format: cell-based, mouse; details: Mus musculus, RAW264.7; for inhibition at 1 µM: 1 µM compound, read-out: KARS1-induced Raw264.7 cell migration (% inhibition, 1uM)
Experimental: C0001 inhibits the binding of KARS1 and 67LR, thereby blocking the migration of monocytes/macrophages and suppressing inflammation. Accordingly, a trans-migration assay using mouse macrophages (Raw264.7) was conducted to preliminarily screen drugs that inhibit the migration of monocytes/macrophages.
Based on this, when KARS1 protein was directly treated externally instead of LN, the trans-migration of Raw264.7 was induced, and the cell migration inhibitory effect of the KARS1 inhibitor C0001 was confirmed. It was verified that C0001, which specifically binds to KARS1, can inhibit cell migration by binding to extracellular KARS1, in addition to the mechanism of inhibiting cell membrane migration of KARS1 induced by laminin and its binding to 67LR, thereby enabling this analysis to be used as a direct method for evaluating in vitro activity against KARS1.
Next, preliminary candidate substances with high inhibitory activity at 1 µM were treated at concentrations of 0.1~4 µM for analysis.

Organ distribution = format: in vivo; design: Organ distribution Plasma (ng/ml): concentration or dose not given beside the values
[2] = S9 metabolic stability, dog; format: in vitro ADME
Experimental: (§1) Among these, secondary MS measurements were conducted for Compound 25 (C0047), Compound 43 (C0216), and C0001 using the S9 method. This test measured the remaining % at 30, 45, and 60 minutes for four species: mouse, rat, dog, and human.

[3] = S9 metabolic stability, human; format: in vitro ADME
Experimental: as §1

[4] = Microsomal metabolic stability, human; format: in vitro ADME
Experimental: (§2) Metabolic stability (MS) evaluation was conducted for the selected compounds by measuring in vitro stability in two species, rat and human, according to the microsomal stability measurement method. As a result, it was identified that MS varied depending on the transformation of parts A, B, and C.

KARS1 and 37LR = molecular target: T1, KARS1 and 37LR (Homo sapiens, UniProt Q15046); assay: Cell-free ELISA of KARS1 and 37LR (laminin receptor) binding; details: 10 µM compound, 1 hour, plate coated with KARS1 (1-207aa), LRF
T1 construct: KARS1 (1-207aa)
Experimental: Next, based on the mechanism of action, a cell-free ELISA analysis was conducted to select compounds with high inhibitory activity on the binding of KARS1 and LR (laminin receptor).

[5] = S9 metabolic stability, mouse; format: in vitro ADME
Experimental: as §1

[6] = S9 metabolic stability, rat; format: in vitro ADME
Experimental: as §1

[7] = Microsomal metabolic stability, rat; format: in vitro ADME
Experimental: as §2

Raw 264.7 cells = assay: LN (Laminin 421)-induced immune cell migration, Transwell; format: cell-based; details: Mus musculus, RAW264.7; for inhibition at 3 µM: 3 µM compound, LN (Laminin 421 1 µg/ml), 24 hours, % inhibition compared to control group, read-out: Migration inhibitor % (3uM)
Experimental: Cell migration was assessed based on the method described in the prior literature (Park, S. G. et al. Human lysyl-tRNA synthetase is secreted to trigger proinflammatory response. Proceedings of the National Academy of Sciences, 2005, 102.18: 6356-6361.). The specific experimental method is as follows. A Transwell (Corning#3421-5µm pore) was coated with gelatin (0.5mg/ml), and then Raw 264.7 cells (1 x 10^5 cells/well) were seeded in the upper chamber. Serum-free medium (Serum Free DMEM, 500 µl) containing LN (Laminin 421 1 µg/ml) was added to the lower chamber. Each compound was treated at a concentration of 3µM in the upper chamber. After 24 hours, the cells were fixed with 70% methanol for 30 minutes and stained with 50% hematoxylin for 30 minutes. Non-migrating cells on the upper side of the membrane were removed with a cotton swab, and the membrane was mounted on a slide. Migrating cells on the lower side of the membrane were observed under a high-power microscope, and the number of cells was measured from the obtained images and expressed as the inhibition rate (% inhibition) compared to the control group.

T1 sequence (Q15046 1-207): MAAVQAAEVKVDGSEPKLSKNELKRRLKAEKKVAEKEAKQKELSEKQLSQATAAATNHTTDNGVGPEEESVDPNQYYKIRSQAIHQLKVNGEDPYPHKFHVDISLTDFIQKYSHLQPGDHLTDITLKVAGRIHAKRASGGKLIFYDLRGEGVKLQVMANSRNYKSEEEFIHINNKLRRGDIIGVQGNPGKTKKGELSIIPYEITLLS

Cmax ([1]; 10 mg/kg, po, 10 mpk): 1750 ng/mL
Tmax ([1]; 10 mg/kg, po, 10 mpk): 1 h
half-life ([1]; 10 mg/kg, po, 10 mpk): 1.34 h
Cmax ([1]; 30 mg/kg, po, 30 mpk): 14400 ng/mL
Tmax ([1]; 30 mg/kg, po, 30 mpk): 2 h
half-life ([1]; 30 mg/kg, po, 30 mpk): 0.76 h
AUC ([1]; iv, 2 mg/kg, 2 mpk): 2410 ng·h/mL
AUC ([1]; po, 10 mg/kg, 10 mpk): > 5000 ng·h/mL
AUC ([1]; po, 10 mg/kg, 10 mpk (Table 11)): 5410 ng·h/mL
AUC ([1]; po, 30 mg/kg, 30 mpk): 53000 ng·h/mL
AUC ([1]; po, 30 mg/kg, 30 mpk (Table 11)): 53000 ng·h/mL
BA (%) ([1]; po, 10 mpk against iv 2 mpk): 44.9%
AUC (ng*h/ml) ([1]; po, 10 mpk, listed as 25 (C0047), 10 mg/kg): 5,109 ng*h/ml
BA (%) ([1]; po, 30 mpk against iv 2 mpk): 146.6%
AUC value increase at 30 mpk ([1]; po): 10.4 times
EC50 (Raw264.7 cells; KARS1-induced cell migration, 0.1~4 µM): 0.57 µM
Organ distribution (ratio per plasma) Brain (Organ distribution; 0.5 h): 0.06
Organ distribution (ratio per plasma) Brain (Organ distribution; 6.0 h): 0.54
Organ distribution (ratio per plasma) Heart (Organ distribution; 0.5 h): 0.29
Organ distribution (ratio per plasma) Heart (Organ distribution; 6.0 h): 0.52
Organ distribution (ratio per plasma) Kidney (Organ distribution; 0.5 h): 0.38
Organ distribution (ratio per plasma) Kidney (Organ distribution; 6.0 h): 0.79
Organ distribution (ratio per plasma) Liver (Organ distribution; 0.5 h): 0.85
Organ distribution (ratio per plasma) Liver (Organ distribution; 6.0 h): 3.15
Organ distribution (ratio per plasma) Lung (Organ distribution; 0.5 h): 0.41
Organ distribution (ratio per plasma) Lung (Organ distribution; 6.0 h): 1.05
Organ distribution Plasma (ng/ml) (Organ distribution; 0.5 h): 29,901 ng/ml
Organ distribution Plasma (ng/ml) (Organ distribution; 6.0 h): 1,499 ng/ml
Metabolic stability (% remaining at each time) Dog (min) 30 ([2]; 30 min): 100.6%
Metabolic stability (% remaining at each time) Dog (min) 45 ([2]; 45 min): 93.5%
Metabolic stability (% remaining at each time) Dog (min) 60 ([2]; 60 min): 97.0%
Metabolic stability (% remaining at each time) Human (min) 30 ([3]; 30 min): 70.1%
Metabolic stability (% remaining at each time) Human (min) 45 ([3]; 45 min): 75.8%
Metabolic stability (% remaining at each time) Human (min) 60 ([3]; 60 min): 66.8%
Metabolic stability (% remaining at 30 min) Human [4]: 66%
inhibition at 10 µM (KARS1 and 37LR): 69.2%
Metabolic stability (% remaining at each time) Mouse (min) 30 ([5]; 30 min): 70.5%
Metabolic stability (% remaining at each time) Mouse (min) 45 ([5]; 45 min): 71.7%
Metabolic stability (% remaining at each time) Mouse (min) 60 ([5]; 60 min): 60.9%
Metabolic stability (% remaining at each time) Rat (min) 30 ([6]; 30 min): 86.0%
Metabolic stability (% remaining at each time) Rat (min) 45 ([6]; 45 min): 84.1%
Metabolic stability (% remaining at each time) Rat (min) 60 ([6]; 60 min): 88.5%
Metabolic stability (% remaining at 30 min) Rat [7]: 77%
EC50 (Raw 264.7 cells; LN-induced cell migration, read-out: EC50 for cell migration inhibition induced by LN): 5.96 µM
SMILES: COc1ccc(CCN(Cc2ccc(N3CC[C@H](C(=O)O)C3)cc2)c2nc3cccc(F)c3s2)cc1 [Compound 25, (S)-1-(4-(((7-fluorobenzo[d]thiazol-2-yl)(4-methoxyphenethyl)amino)-methyl)phenyl)pyrrolidine-3-carboxylic acid]
inhibition at 1 µM (Raw264.7 cells): 96.2%
inhibition at 3 µM (Raw 264.7 cells): 83%

Cmax ([1]; 10 mg/kg, po, 10 mpk): 4230 ng/mL
Tmax ([1]; 10 mg/kg, po, 10 mpk): 0.83 h
half-life ([1]; 10 mg/kg, po, 10 mpk): 1.96 h
Cmax ([1]; 30 mg/kg, po, 30 mpk): 6470 ng/mL
Tmax ([1]; 30 mg/kg, po, 30 mpk): 1 h
half-life ([1]; 30 mg/kg, po, 30 mpk): 2.13 h
AUC ([1]; po, 30 mg/kg, 30 mpk): 28500 ng·h/mL
AUC (ng*h/ml) ([1]; po, 10 mpk, 10 mg/kg): exceeding 5,000 ng*h/ml
AUC (ng*h/ml) ([1]; po, 10 mpk, listed as 41 (C0189), 10 mg/kg): 11,859 ng*h/ml
AUC value increase at 30 mpk ([1]; po): approximately 2.4 times
Metabolic stability (% remaining at 30 min) Human [4]: 51%
inhibition at 10 µM (KARS1 and 37LR): 69.6%
Metabolic stability (% remaining at 30 min) Rat [7]: 58%
SMILES: COc1ccc(CCN(c2nc3cccc(F)c3s2)C(C)c2cccc(N3CC[C@@H](C(=O)O)C3)c2)cc1 (stereo partly drawn) [Compound 41, (3R)-1-(3-(1-((7-fluorobenzo[d]thiazol-2-yl)(4-methoxyphenethyl)-amino)ethyl)phenyl)pyrrolidine-3-carboxylic acid]
inhibition at 1 µM (Raw264.7 cells): 90.2%
inhibition at 3 µM (Raw 264.7 cells): 58.7%
